The source of these data is patent US20040097566A1, “2-Substituted thiazolidinone and oxazolidinone derivatives for the inhibition of phosphatases and the treatment of cancer” (priority 2001, published 2004).

The test system of data set [1] is breast cancer cell line MDA-MB468. Kind of data set: MTT assay, human breast cancer cells. The data set is classed as cell-based. The note with it: concentrations in the range of 10^−7-10^−5 M or higher, FIGS. 2, 17. An excerpt:
(§1) The anti-cancer activity of some of the compounds described herein have been tested in one type of such in vitro assay, as described in the examples herein, using a microculture assay with 3-(4,5-dimethylthiazol-2-yl)-2,5-diphenyltetrazolium bromide (“MTT”). This assay has an advantage over in vivo assay in that results are obtained within a week as opposed to several months. The assay can be carried out in 96-well microtiter plates. The MTT assay is based on the production of a dark blue formazan product by dehydrogenase in the mitochondria of live tumor cells after exposure to drug for 6 days [M. C. Alley, D. A. Scudiero, A. Monks, M. L. Hursey, M. J. Czerwinski, D. L. Fine, B. J. Abbout, J. G. Mayo, R. H. Shoemaker and M. R. Boyd, Cancer Res., 48, 589, 1988]. Thus, only live cells are stained and can be measured at 595 nm. Anti-cancer activity can be reported as percent of the tumor cell growth in the presence of compound at a defined dose compared to control/vehicle treated tumor cells. The results of some such screening assays are given in Examples 162a and 162b, and in FIGS. 2, 3, and 15-18.
(§2) The following human cancer cell lines were used to detect anti-cancer activity in the compounds of the invention.
The breast cancer cell line MDA-MB468 served to detect anti-breast cancer activity.
(§3) Cell lines were purchased from American Type Culture Collection (ATCC).
(§4) The cancer cell cultures were grown as recommended by the ATTC manuals. A549 cells and BX-PC-3 were grown in DME Dulbecco's modified Eagle's medium containing 4500 mg/L glucose; 4 mM L-glutamine; 10 U/ml Pen-G; 10 mcg/ml […] and 10% fetal calf serum (FCS). PC-3 and MDA-MB468 cells were grown in RPMI medium 1640 containing 2 mM L-glutamine; 10 U/ml Pen-G; 10 mcg/ml Streptomycin and 10% FCS. Cells were kept at 6% CO2 and 37° C. Cells were seeded on day zero in 96-well format tissue culture plates at suitable densities the day before starting treatment, in the media indicated above.
(§5) On day one, the compounds of the invention were added to the culture media of growing cells, containing 10% FCS. The cell media contained the compounds of the invention at one of six concentrations: […], 5×10^−8, 1×10^−7, 5×10^−7, 1×10^−6, and 1×10^−5M. 0.1% DMSO was used as vehicle control, and never exceeded 0.1% final concentration. On day four the media was removed and replaced with fresh media containing the compounds of the invention and FCS.
(§6) The assay is based on the cleavage of the yellow tetrazolium salt MTT to purple formazan crystals by dehydrogenase activity in active mitochondria. This conversion only occurs in living cells with intact/functional mitochondria.
(§7) On day five 10 μl of 5 mg/ml MTT dye are added to each well containing a cell culture. Cells are incubated for additional 4 hours at 6% CO2 and 37° C. Reaction is then stopped by adding 100 μl/well of a solubilization solution consisting of 10% Sodium Dodecyl Sulfate (SDS) and 10 mM HCl On day 6 the formazan crystals formed are solubilized and the resulting colored solution is quantified using a scanning multiwell spectrophotometer at a wavelength of 595 nm.

In data set [2] the target is T1, recombinant human enzyme Cdc25A (Homo sapiens, UniProt P30304).
T1 construct: purchased Upstate Biotechnology (Lake Placid, N.Y.)
T1 sequence (P30304 1-524): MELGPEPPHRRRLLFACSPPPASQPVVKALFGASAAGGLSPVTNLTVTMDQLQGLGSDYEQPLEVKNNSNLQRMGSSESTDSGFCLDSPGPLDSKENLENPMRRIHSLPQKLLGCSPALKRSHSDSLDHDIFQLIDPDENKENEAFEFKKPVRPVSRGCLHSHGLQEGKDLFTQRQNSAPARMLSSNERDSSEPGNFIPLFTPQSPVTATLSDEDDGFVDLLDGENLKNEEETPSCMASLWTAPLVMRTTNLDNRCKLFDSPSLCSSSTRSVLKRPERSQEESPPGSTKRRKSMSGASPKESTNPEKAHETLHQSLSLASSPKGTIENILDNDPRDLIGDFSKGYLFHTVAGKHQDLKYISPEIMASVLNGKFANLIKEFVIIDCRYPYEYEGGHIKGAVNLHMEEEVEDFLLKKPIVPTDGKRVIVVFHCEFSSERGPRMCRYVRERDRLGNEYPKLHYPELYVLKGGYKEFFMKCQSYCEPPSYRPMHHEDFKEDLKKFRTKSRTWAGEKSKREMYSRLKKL
Kind of data set: Cdc25A phosphatase assay (OMFP substrate), inhibition of Cdc25A. The data set is classed as biochemical. The conditions noted are these: FIG. 1; inhibition calculated as a percentage of the solvent control. As for the experimental part: Therefore, one method of […] screening of the compounds for anti-cancer activity is to test the activity of a particular compound for the ability to inhibit Cdc 25-type phosphatases. The results of one such test are shown in Example 161 below, and FIG. 1.
The phosphatase assay was performed in a 96-well microtiter plate using recombinant human enzyme Cdc25A purchased from Upstate Biotechnology (Lake Placid, N.Y.). Stock solutions of the test compounds were prepared in DMSO. Five μl of suitable dilutions of the compounds were added to the assay. The final volume of the assay was 100 μl. Twenty units of Cdc25A were pre-incubated with the test compounds at 37° C. for 10 min in the reaction mixture containing 100 mM Tris-HCl, pH 8.2, 40 mM NaCl, 1 mM DTT and 20% glycerol. The reaction was initiated by addition of the enzyme substrate […] (OMFP; Sigma, St. Louis, Mo.) at a final concentration of 40 μM and incubated at room temperature for 1 hour. This substrate allows fluorometric determination of enzyme activity. OMFP is readily metabolized to the fluorescent O-methylfluorescein by the enzyme Cdc25A, thus the absorbance of each reaction sample was determined at 477 nm using a plate reader (SpectraMax 340, Molecular Devices, Sunnyvale, Calif.). […] Inhibition of Cdc25A activity by test compounds was calculated as a percentage of the solvent control.

The subject of data set [3] is prostate cancer cell line PC-3. Put plainly: MTT assay, human prostate cancer cells. It counts as cell-based. The conditions noted are these: concentrations in the range of 10^−7-10^−5 M or higher, FIGS. 2, 16.
Excerpt: as §1, §2
The prostate cancer cell line PC-3 was used to detect […]
as §3, §4, §5, §6, §7
In general terms: Tetrazolium assays rely on reduction of a dye to a coloured formazan, in cell work by metabolically active cells.

In data set [4] the test system is pancreatic cancer cell line BX-PC-3. Put plainly: MTT assay, human pancreatic cancer cells. It counts as cell-based. The conditions noted are these: concentrations in the range of 10^−7-10^−5 M or higher, FIGS. 3, 18.
Excerpt: as §1, §2
The pancreatic cancer cell line BX-PC-3 was used to detect anti-pancreatic cancer activity.
as §3, §4, §5, §6, §7

For data set [5], the system named is non-small-cell lung cancer cell line A549. Kind of data set: MTT assay, human non-small-cell lung cancer cells. The data set is classed as cell-based. The note with it: concentrations in the range of 10^−7-10^−5 M or higher, FIGS. 3, 15.
Excerpt: as §1, §2
The non-small-cell lung cancer cell line A549 was used to detect anti-lung cancer activity
as §3, §4, §5, §6, §7

In data set [6] the test system is tumor cells (PC3). Kind of data set: Solid prostate cancer tumors in athymic nude mice, intraperitoneal treatment. It counts as in vivo. The conditions noted are these: PC3 s.c. in athymic nude mice; i.p. every other day; compound 43 20mg/kg, compound 81 20mg/kg and 60mg/kg; FIGS. 20, 21. The method, then: (§8) Four to six week-old male athymic nude mice (Harlan) were housed under sterile conditions in a fixed 12-12-hr artificial light-dark cycle, and maintained on a standard rodent diet provided ad libitum. Animals were allowed two days to acclimate in this experimental environment prior to the initiation of the study.
(§9) Groups of animals were injected subcutaneously with tumor cells (H460 or PC3). Prior to the injection, the sterile tumor cells were at a logarithmic growth phase and were washed twice with PBS, counted and resuspended in sterile saline at 5-50 million cells per ml. As soon as solid tumors were discernible, the animals were sorted into treatment groups with equal average tumor volume. Animals were treated every other day intraperitoneally with a final volume of 5 ml/kg. Tumor volume was measured once a week for the duration of the study.
Experiment I: Treatment of solid prostate cancer tumors
Study 1—Treatment groups(n=6/group):

Data set [7] relates to tumor cells (H460). Put plainly: Solid non-small-cell lung cancer tumors in athymic nude mice, intraperitoneal treatment. It counts as in vivo. The conditions noted are these: H460 s.c. in athymic nude mice, i.p. every other day, compound 81 20mg/kg, FIG. 22. As for the experimental part: as §8, §9
Experiment II: Treatment of solid non-small-cell lung cancer tumors

The structures appear in SMILES notation. “Also recorded” adds a separate entry of the source.

Usually melting point stands for the temperature of the solid-liquid transition. In turn, `O=C1N=C(N2CCCCC2)S/C1=C\c1cccc(-c2ccc(O)c(C34CC5CC(CC(C5)C3)C4)c2)c1` [Compound 3, 5-[3-(3-Adamantan-1-yl-4-hydroxy-phenyl)benzylidene]-2-piperidin-1-yl-thiazol-4-one] came in with a melting point of 311 to 312 °C. In data set [1], the “anticancer cell activity / killing of breast cancer cells” value was “kill significant percentages of the cells; also recorded: strong anticancer cell activity”. Besides, in data set [2], the “selective inhibition of Cdc25 as compared to the dual specificity phosphatase MKP-1” value was “selective inhibition of Cdc25”. Further, in data set [3], the “anticancer cell activity / killing of prostate cancer cells” value is listed as “kill significant percentages of the cells; also recorded: strong anticancer cell activity”. Moreover, the “anticancer cell activity / killing of pancreatic cancer cells” value in data set [4] is listed as “kill significant percentages of the cells; also recorded: strong anticancer all activity”. Further, the “anticancer cell activity / killing of non-small-cell lung cancer cells” value in data set [5] was “kill significant percentages of the cells; also recorded: strong anticancer all activity”.
Turning to `O=C1N=C(N2CCOCC2)SC1Cc1cccc(-c2cc(F)c(O)c(C34CC5CC(CC(C5)C3)C4)c2)c1` (stereo not drawn) [Compound 43, 5-[3-(3-Adamantan-1-yl-4-hydroxy-5-fluoro-phenyl)benzyl]-2-morpholin-4-yl-thiazol-4-one], the melting point is 227 to 229 °C. The “anticancer cell activity / killing of breast cancer cells” value in data set [1] is listed as “kill significant percentages of the cells; also recorded: strong anticancer cell activity”. Further, the “growth of solid human prostate cancer tumors” value in data set [6] is on record as “significantly retarded the growth; also recorded: significantly slowed the growth”. Besides, the “anticancer cell activity / killing of prostate cancer cells” value in data set [3] was “kill significant percentages of the cells; also recorded: strong anticancer cell activity”. In addition, in data set [4], the “anticancer cell activity / killing of pancreatic cancer cells” value is recorded as “kill significant percentages of the cells; also recorded: strong anticancer all activity”. For the same compound, the “anticancer cell activity / killing of non-small-cell lung cancer cells” value in data set [5] was “kill significant percentages of the cells; also recorded: strong anticancer all activity”.
`O=C1N=C(N2CCCC2)SC1Cc1cccc(-c2cc(F)c(O)c(C34CC5CC(CC(C5)C3)C4)c2)c1` (stereo not drawn) [Compound 81]: the melting point was in the range of 152 to 154 °C. For the same compound, in data set [1], the “anticancer cell activity / killing of breast cancer cells” value is recorded as “kill significant percentages of the cells”. The “growth of solid human prostate cancer tumors” value in data set [6] is on record as “significantly retarded the growth; also recorded: significantly slowed the growth”. Besides, in data set [3], the “anticancer cell activity / killing of prostate cancer cells” value is “kill significant percentages of the cells”. The “anticancer cell activity / killing of pancreatic cancer cells” value in data set [4] is on record as “kill significant percentages of the cells”. Further, the “growth of non-small cell lung cancer tumors” value in data set [7] is “significantly retarded the growth; also recorded: significantly slowed the growth”. The “anticancer cell activity / killing of non-small-cell lung cancer cells” value in data set [5] is “kill significant percentages of the cells”.
In the case of `CCC(C)(C)c1cc(-c2cccc(CC3SC(N4CCOCC4)=NC3=O)c2)ccc1O` (stereo not drawn) [Compound 151, 5-[3′-(1,1-Dimethyl-propyl)-4′-hydroxy-biphenyl-3-ylmethyl]-2-morpholin-4-yl-thiazol-4-one], the melting point was 74 to 77 °C. Further, the “anticancer cell activity / killing of breast cancer cells” value in data set [1] is “kill significant percentages of the cells”. Besides, the “anticancer cell activity / killing of prostate cancer cells” value in data set [3] is “kill significant percentages of the cells”. Also, the “anticancer cell activity / killing of pancreatic cancer cells” value in data set [4] is on record as “kill significant percentages of the cells”. The “anticancer cell activity / killing of non-small-cell lung cancer cells” value in data set [5] is “kill significant percentages of the cells”.
